Data as given in BigSolDB 2.1.

Cn1cc[nH]c1=S
solubility (mole fraction)
Settings	278.15 K	283.15 K	288.15 K	293.15 K	298.15 K	303.15 K	308.15 K	313.15 K	318.15 K	323.15 K
in 1,4-dioxane	0.0435	0.0517	0.0616	0.0731	0.0874	0.102	0.119	0.141	0.164	0.187
in THF	0.0475	0.0542	0.0634	0.0733	0.0841	0.0972	0.112	0.13	0.148	0.169
in acetone	0.0425	0.0517	0.0623	0.0749	0.0889	0.107	0.124	0.147	0.167	0.193
in acetonitrile	0.016	0.0216	0.0267	0.0338	0.0416	0.0531	0.0668	0.0818	0.101	0.121
in ethanol	0.0275	0.0335	0.0417	0.0519	0.0645	0.0795	0.0968	0.117	0.139	0.167
in ethyl acetate	0.0159	0.018	0.0198	0.022	0.0246	0.0273	0.0306	0.0339	0.038	0.0428
in isobutanol	0.019	0.0233	0.0289	0.0365	0.0439	0.0542	0.0656	0.0809	0.0966	0.117
in isopropanol	0.0168	0.0225	0.029	0.0381	0.0478	0.0621	0.0788	0.0985	0.123	0.152
in methanol	0.06	0.0711	0.084	0.0996	0.125	0.148	0.177	0.21	0.244	0.283
in methyl acetate	0.0288	0.0337	0.0391	0.0452	0.0521	0.0593	0.07	0.0817	0.0936	0.107
in n-butanol	0.0194	0.026	0.0328	0.0414	0.0528	0.0665	0.0823	0.102	0.124	0.153
in n-propanol	0.0261	0.032	0.0385	0.0468	0.0558	0.0663	0.0786	0.0931	0.111	0.13
